The text below walks through data of paper PMC10964925 (European journal of medicinal chemistry, 2024).

Molecules are shown by their SMILES. Some results are limits rather than exact numbers.

Data set [1] concerns the target FimHFL (full length FimH) (Escherichia coli, UniProt P08191). The data set can be described thus: competitive fluorescence polarization assay. It is filed as binding. In general terms: In fluorescence polarisation assays a small probe gives low polarisation when free and higher when bound to something large.
A short description of data set [2]: ligand solubility in assay buffer. It is filed as physicochemical. As to conditions: for solubility: assay buffer with 5% or 10% DMSO; for highest achievable ligand concentration: assay buffer, final DMSO concentration 10%.
Data set [3] deals with T1, FimHLD (isolated lectin domain of FimH) (Escherichia coli, UniProt P08191). The data set can be described thus: competitive fluorescence polarization assay. It is filed as binding. As to conditions: for factor of affinity improvement from 1: aglycone optimization.
The target in a further data set is FimHLD (Escherichia coli, UniProt P08191). Put plainly: isothermal titration calorimetry. It is filed as binding. The conditions noted are these: ITC KD versus FPA KD.
Data set [4] addresses T1, FimHLD (isolated lectin domain of FimH). As to conditions: read-out: KD FimHLD; competitive FPA; mannosides; ref [18] and [19]; cited from earlier work.

T1 sequence (P08191 22-179): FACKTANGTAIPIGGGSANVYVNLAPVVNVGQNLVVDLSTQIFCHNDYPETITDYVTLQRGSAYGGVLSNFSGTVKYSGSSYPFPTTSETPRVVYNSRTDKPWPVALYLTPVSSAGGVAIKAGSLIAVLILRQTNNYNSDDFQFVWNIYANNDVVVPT
Sequence of FimHFL (full length FimH) (P08191 22-300, other chains not shown): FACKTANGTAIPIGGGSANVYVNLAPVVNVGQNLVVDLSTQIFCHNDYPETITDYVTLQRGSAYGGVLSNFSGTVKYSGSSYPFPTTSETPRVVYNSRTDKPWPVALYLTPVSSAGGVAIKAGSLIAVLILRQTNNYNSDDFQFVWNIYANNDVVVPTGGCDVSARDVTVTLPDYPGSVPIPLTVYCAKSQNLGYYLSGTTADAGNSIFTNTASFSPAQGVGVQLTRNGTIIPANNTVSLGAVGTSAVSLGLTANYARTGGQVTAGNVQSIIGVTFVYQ
Sequence of FimHLD (P08191 22-179): as the sequence (P08191 22-179) above

Take `N#Cc1ccc(-c2ccc(CO[C@H]3CO[C@H](CO)[C@@H](O)[C@H](O)[C@@H]3O)cc2)cc1` [7a, 2-O-(4-[4-cyanophenyl]benzyl)-1,6-anhydro-D-glycero-D-galactitol]: the “increase in binding affinity to FimHFL” value in data set [1] (para-cyano group on outer aromatic ring versus unsubstituted 7c) is “approximately 2 fold”. In addition, the solubility result in data set [2] was “insufficient solubility”.
With `N#Cc1ccc(-c2ccc(O[C@H]3CO[C@H](CO)[C@@H](O)[C@H](O)[C@@H]3O)c(Cl)c2)cc1` [8a, 2-O-[4-(4’-cyanophenyl)-2-chlorophenyl]-1,6-anhydro-D-glycero-D-galactitol], the “factor of affinity improvement compared to 6” value in data set [3] (FPA, ortho-chloro modification) turned out to be 2.6. Besides, the “factor of affinity gain by ortho-chloro modification” value in data set [1] (FimHFL, FPA, versus 6) came to 6. For the same compound, in data set [2], the solubility result was “low solubility” and the “highest achievable ligand concentration” value was ≤ 500 µM.
Take `OC[C@H]1OC[C@H](Oc2ccc(-c3ccccc3)cc2Cl)[C@@H](O)[C@@H](O)[C@@H]1O` [8c, 2-O-[4-phenyl-2-chlorophenyl]-1,6-anhydro-D-glycero-D-galactitol]: the “factor of affinity improvement from 1” value in data set [3] (FPA) is on record as 32. Moreover, in data set [2], the solubility entry is recorded as “low solubility” and the “highest achievable ligand concentration” value is ≤ 500 µM.
As to `N#Cc1ccc(-c2ccc(CO[C@H]3CO[C@H](CO)[C@@H](O)[C@H](O)[C@@H]3O)c(Cl)c2)cc1` [9a, 2-O-(2-chloro-4-[4-cyanophenyl]benzyl)-1,6-anhydro-D-glycero-D-galactitol], the “factor of affinity improvement from 1” value in data set [3] (FPA) came to 1.5.
For `OC[C@H]1OC[C@H](OCc2ccccc2)[C@@H](O)[C@@H](O)[C@@H]1O` [compound 4, 2-O-benzyl-1,6-anhydro-D-glycero-D-galactitol], the “factor of loss in binding affinity compared to phenylpropyl analog 5” value in data set [3] (FPA) amounted to 10.
In the case of `N#Cc1ccc(-c2ccc(O[C@H]3CO[C@H](CO)[C@@H](O)[C@H](O)[C@@H]3O)cc2)cc1` [compound 6, 2-O-(4-[4-cyanophenyl]phenyl)-1,6-anhydro-D-glycero-D-galactitol], the “factor of affinity increase compared to 7a” value in data set [3] (FPA) was found to be 6. Also, on FimHLD, the “ITC binding affinity lower than recorded in the FPA assay” value is “approx. 3 fold”. Further, in data set [2], the solubility entry is listed as “low solubility” and the “highest achievable ligand concentration” value is ≤ 500 µM.
By Kd is commonly meant the constant that tells how readily two partners part at equilibrium. As for `N#Cc1ccc(-c2ccc(O[C@H]3O[C@H](CO)[C@@H](O)[C@H](O)[C@@H]3O)cc2)cc1` [compound 27], the Kd in data set [4] was 2 nM.
As for `NC(=O)c1ccc(-c2ccc(O[C@H]3O[C@H](CO)[C@@H](O)[C@H](O)[C@@H]3O)cc2)cc1` [compound 28], in data set [4], the Kd is 2.8 nM.
For the compound `N#Cc1ccc(-c2ccc(O[C@H]3O[C@H](CO)[C@@H](O)[C@H](O)[C@@H]3O)c(Cl)c2)cc1` [compound 30, reference compound], the “factor of affinity improvement comparing 2 to 30” value in data set [3] (mannoside ligands, from literature KD values) amounted to 56.6.
